Here are results for one compound from patent publication US10011589B2, “Treatments for gastrointestinal conditions” (BOARD OF REGENTS, THE UNIVERSITY OF TEXAS SYSTEM, priority 2014, dated 2018).

Molecules are shown by their SMILES. Converted amounts (≈) assume the structure as drawn.

For series [1], the system named is C. difficile strain ATCC 43596. Kind of series: MIC against infecting strain ATCC 43596. In kind it is cell-based, Clostridium difficile. Particulars: Clostridioides difficile, ATCC43596.
A short description of series [2]: Pharmacokinetic study in hamsters, plasma. It is filed as in vivo. Particulars: male, Syrian, po, hamster, 100 mg/kg in PEG-400:water (85:15). On the procedure:
Pharmacokinetic studies were assessed in male Syrian hamsters (˜100 g), from Charles-River, with each carrying a pre-implanted jugular vein cannula. Hamsters (n=5 per group) were fasted overnight and for the duration of the experiment (7 h). After collecting pre-dose blood samples (200 μL), animals were dosed with 100 mg/kg of compounds formulated in PEG-400:water (85:15). At various time points blood samples were collected into heparinized coated tubes that were centrifuged at 3000 rpm for 10 min to yield plasma, which was stored at −20° C. After dosing animals (n=3 per time point) as above, animals were humanely sacrificed at time points and their cecal contents collected and stored at −20° C. For plasma samples, 25 μL of plasma was placed in 384-well analytical plate and quenched by the addition of 50 μL of acetonitrile containing 4 mg/L warfarin as an internal standard. The plate was sealed, shaken at 600 rpm for 10 min, and then was centrifuged at 4000 rpm for 20 min. 15 μL of the supernatant was transferred to a new analytical 96-well plate and mixed with 100 μL of MilliQ water. The samples were analyzed by injecting 5 μL onto a Waters UPLC/SQD LC-MS/MS system. The cecal samples were processed by adding 100 μL of acetonitrile containing 4 mg/L of warfarin (internal standard) to the microfuge tubes containing cecal matter (˜50 mg). The suspension was vortexed for 10 sec, sonicated for 1 min and then centrifuged at 10,000 rpm for 10 min. Aliquots (50 μL) of the collected supernatants were then transferred to a 384-well plate and analyzed by high resolution mass spectroscopy using Waters XEVO QTOF LCMS.

Series [3] has as its system Clostridium difficile infection. The settings on record: severe CDI; cited from earlier work.
The subject of series [4] is C. difficile strain ATCC 43596. In words: Hamster model of CDI (efficacy). It is filed as in vivo, Golden Syrian hamsters. Particulars: 50 mg/kg once daily, days 1 to 5, oral. On the procedure: Golden Syrian hamsters (˜100 g) from Charles River Laboratories were separately housed in sterile cages and maintained on sterile food and water. On day −1, animals were subcutaneously injected with clindamycin phosphate solution (50 mg/kg, from Hospira). After 20 h (day 0), hamsters were infected by oral gavage with 10^6 cfu of the C. difficile strain ATCC 43596 grown in Sporulation Medium and washed once with pre-reduced PBS; 15. […] After 5 days of treatment, surviving hamsters were monitored for up to 30 days for signs of disease as described by Anton et al. All moribund animals were euthanized, as well as those that survived the post-treatment monitoring period (30 days); ceca were recovered from all animals. All animal experiments were approved by The Institutional Animal Care and Use Committee of The University of Texas at Arlington.

Series [5] has as its system C. difficile strains R20291 and BAA-1875. Kind of series: MIC testing against C. difficile strains R20291 and BAA-1875. The settings on record: Clostridioides difficile, BAA1875; C. difficile R20291 and BAA-1875 (FIG. 8); 24 h, 37° C., anaerobic. In kind it is cell-based, Clostridium difficile. On the procedure: The synthesized compounds were initially tested against four virulent C. difficile strains: CD1803 (toxinotype III, 95 NAP1), CD1875 (toxinotype V, NAP7), R20291 (ribotype 027—from A. Sonenshein, Tufts University, USA), and BAA-1875 (ribotype 078, from American Type Culture Collection-ATCC). The activities (i.e. Minimum Inhibitory Concentrations-MICs) of test compounds were determined in 24 or 96 well microtitre plates using bacterial inocula of 10^6 cfu/mL and were defined as the lowest concentration of test compound that inhibited visible growth after 24 h of incubation at 37° C. in an A35 anaerobic chamber (Don-Whitley).

The test system of a further series is Caco-2 monolayer. Kind of series: Caco-2 cell permeability assay. Particulars: apical to basolateral. It is filed as in vitro ADME. On the procedure: The permeability co-efficient (Papp A-B) of the compounds were calculated and the ability of compounds to move from the apical to the basolateral side of Caco-2 monolayer is shown in FIG. 16.
A general note: Caco-2 monolayers are a common model of the intestinal barrier.

For `Cc1ncc([N+](=O)[O-])n1CCO` [metronidazole, reference compound], it took 0.125 µg/mL (≈ 0.73 µM) to inhibit growth in series [1] (MIC). Moreover, in series [2], the Cmax (as a rule, the highest concentration seen after dosing) was 51 µg/mL and the Tmax (as a rule, the time at which the peak concentration occurs) came to 1 h. Besides, the area under the curve (AUC) – broadly, the area under the concentration-time curve, a measure of exposure – in series [2] (read-out: total exposure (AUC) in plasma) came out at 135 µg·h/mL. For the same compound, in series [3], the “patients relapsing following therapy” value is “more than 25%”. The “survival, maximum days post-infection” value in series [4] was at most 10 days. Besides, in series [5], the MIC (in general, the lowest concentration found to suppress growth) was determined as 0.25 µg/mL (≈ 1.46 µM). For the same compound, the “Caco-2 permeation in words” value with Caco-2 monolayer is on record as “highly permeable”.
